Measurements: US5359135A, “Triasulfurone compounds” (priority 1990, dated 1994)

Tests used:
Assay type in all cases: binding, mouse (Balb/c)
Details in all cases: for Cross-reactivity: (triasulfurone conc. for 50% inhibition/analog conc. for 50% inhibition) × 100
[1] = tested on: MAb 4134-40-1; assay: competitive ELISA, triasulfurone and analogs with MAb 4134-40-1 (Table 1)
Text: (§1) As defined within the context of this invention, the percentage of cross-reactivity is represented by the following equation: [triasulfurone concentration for 50% inhibition (I50)/concentration of the triasulfurone analogs for 50% inhibition (I50)]×100.
(§2) The I50 value can be determined, for example, by means of a competitive ELISA assay (see Example 8). In that case the I50 value corresponds, for example, to the antigen concentration that leads to a 50% inhibition of the binding of the antibody to the carrier-bound antigen.
(§3) The detection of triasulfurone is effected by means of a two-step competitive ELISA test.
(§4) BSA-conjugated hapten, prepared in accordance with Example 1.3.1 or 1.3.2, in a 50mM sodium carbonate buffer (pH 9.6) (200 ng of BSA-conjugated hapten/100 μl of sodium carbonate buffer) is first of all adsorbed on microtitre plates (for example Dynatech, type M 129A) and incubated overnight at a temperature of 4° C. The plates are then washed five times with PBS buffer enriched with 0.1% (v/v) polysorbate 20 (Tween 20) (PBS Tween).
(§5) The remaining free binding sites of the solid carder material are then blocked by the addition of PBS-BSA in the form of a 1% (w/v) solution. After incubation for two hours at 22° C. the plates are washed again with PBS Tween (0.1%).
(§6) 50 μl of the supernatant of the previously cloned hybridoma cells (in a dilution of 1:2000 or 1:4000) or 50 μl of the previously purified monoclonal antibodies (40-120 ng/ml) are incubated a) with 950 μl of a standard solution containing an increasing amount of triasulfurone or of triasulfurone analogs, b) with triasulfurone-containing water samples or c) with triasulfurone-containing soil extracts. [All dilutions are carried out in PBS Tween (0.1%)].
(§7) After an incubation period of 1 hour at room temperature (22° C.), 200 μl of the antigen/antibody mixture are added to each well in the microtitre plate and the whole batch is incubated for a further one hour. The wells are then washed five times with PBS Tween (0.1%) and charged with 100 μl/well of goat anti-mouse IgG antibody that is conjugated to alkaline phosphatase (dilution 1:1500), and incubated for a period of 1.5 hours.
(§8) After washing again, 150 μl/well of the substrate p-nitrophenyl phosphate dissolved in 1 mg/ml of diethanolamine buffer ([…], pH 9.8, enriched with 0.5 mM MgCl2 ×6H2 O) are added to the wells.
(§9) The intensity of the colour reaction that has occurred is determined at a wavelength of 405 nm. […] All the samples are determined in triplicate.
(§10) In order to determine the amount of triasulfurone present in a sample, first of all a calibration curve is produced (FIG. 1), B/Bo×100 being plotted against the concentration of inhibitor. (Bo represents the absorption capacity measured without the addition of a triasulfurone inhibitor to the antibody, and B is the absorption capacity when triasulfurone inhibitors at various concentrations are added). The I50 value indicates the concentration of the antigen at which the binding of antibody to the solid phase is inhibited by 50%. The I50 value is determined using an ENZFITTER (Leatherbarrow, Elsevier-Biosoft) curve-calculation program based on a four-parameter logistical curve (Raab GM, 1983) and specially adapted to the prevailing conditions. The quantitative determination of triasulfurone in soil or water samples within the context of ELISA is also carried out using the ENZFITTER program, the adaptation of the curve being based on standards that run on any microtitre plate.

[2] = tested on: MAb 4147-19-4; assay: competitive ELISA, triasulfurone and analogs with MAb 4147-19-4 (Table 1)
Text: as §1, §2, §3, §4, §5, §6, §7, §8, §9, §10

[3] = tested on: MAb 4149-1-1; assay: competitive ELISA, triasulfurone and analogs with MAb 4149-1-1 (Table 1)
Text: as §1, §2, §3, §4, §5, §6, §7, §8, §9, §10

## COC(=O)c1ccccc1S(=O)(=O)NC(=O)Nc1nc(C)nc(OC)n1 [O, methsulfurone-methyl]
[1]
  I50 (inhibitor concentration that reduces the ELISA signal by 50% in comparison to the control): > 1000 ng/mL
  Cross-reactivity: < 0.7%
[2]
  I50 (inhibitor concentration that reduces the ELISA signal by 50% in comparison to the control): 81.5 ng/mL
  Cross-reactivity: 0.1%
[3]
  I50 (inhibitor concentration that reduces the ELISA signal by 50% in comparison to the control): 600 ng/mL
  Cross-reactivity: < 0.01%

## CCN(CC)C(=O)NS(=O)(=O)c1ccccc1OCCCl [T]
[1]
  I50 (inhibitor concentration that reduces the ELISA signal by 50% in comparison to the control): 0.9 ng/mL
  Cross-reactivity: 800.0%
[2]
  I50 (inhibitor concentration that reduces the ELISA signal by 50% in comparison to the control): 17.6 ng/mL
  Cross-reactivity: 0.5%
[3]
  I50 (inhibitor concentration that reduces the ELISA signal by 50% in comparison to the control): 0.01 ng/mL
  Cross-reactivity: 500.00%

## CCCOC(=O)NS(=O)(=O)c1ccccc1OCCCl [R]
[1]
  I50 (inhibitor concentration that reduces the ELISA signal by 50% in comparison to the control): 2.1 ng/mL
  Cross-reactivity: 342.9%
[2]
  I50 (inhibitor concentration that reduces the ELISA signal by 50% in comparison to the control): 1.9 ng/mL
  Cross-reactivity: 4.7%
[3]
  I50 (inhibitor concentration that reduces the ELISA signal by 50% in comparison to the control): 0.02 ng/mL
  Cross-reactivity: 250.00%

## COC(=O)c1sccc1S(=O)(=O)NC(=O)Nc1nc(C)nc(OC)n1 [L, thiameturone-methyl]
[1]
  I50 (inhibitor concentration that reduces the ELISA signal by 50% in comparison to the control): > 1000 ng/mL
  Cross-reactivity: < 0.7%
[2]
  I50 (inhibitor concentration that reduces the ELISA signal by 50% in comparison to the control): 14.2 ng/mL
  Cross-reactivity: 0.6%
[3]
  I50 (inhibitor concentration that reduces the ELISA signal by 50% in comparison to the control): > 1000 ng/mL
  Cross-reactivity: < 0.01%

## COc1nc(C)nc(NC(=O)NS(=O)(=O)c2ccccc2Cl)n1 [M, chlorosulfurone]
[1]
  I50 (inhibitor concentration that reduces the ELISA signal by 50% in comparison to the control): > 1000 ng/mL
  Cross-reactivity: < 0.7%
[2]
  I50 (inhibitor concentration that reduces the ELISA signal by 50% in comparison to the control): 14.3 ng/mL
  Cross-reactivity: 0.6%
[3]
  I50 (inhibitor concentration that reduces the ELISA signal by 50% in comparison to the control): 420 ng/mL
  Cross-reactivity: 0.01%

## COC(=O)c1ccccc1S(=O)(=O)NC(=O)N(C)c1nc(C)nc(OC)n1 [K, tribenurone-methyl]
[1]
  I50 (inhibitor concentration that reduces the ELISA signal by 50% in comparison to the control): > 1000 ng/mL
  Cross-reactivity: < 0.7%
[2]
  I50 (inhibitor concentration that reduces the ELISA signal by 50% in comparison to the control): > 1000 ng/mL
  Cross-reactivity: < 0.01%
[3]
  I50 (inhibitor concentration that reduces the ELISA signal by 50% in comparison to the control): > 1000 ng/mL
  Cross-reactivity: < 0.01%

## CCS(=O)(=O)c1cccnc1S(=O)(=O)NC(=O)Nc1nc(OC)cc(OC)n1 [Q]
[1]
  I50 (inhibitor concentration that reduces the ELISA signal by 50% in comparison to the control): > 1000 ng/mL
  Cross-reactivity: < 0.7%
[2]
  I50 (inhibitor concentration that reduces the ELISA signal by 50% in comparison to the control): > 1000 ng/mL
  Cross-reactivity: < 0.01%
[3]
  I50 (inhibitor concentration that reduces the ELISA signal by 50% in comparison to the control): > 1000 ng/mL
  Cross-reactivity: < 0.01%

## NS(=O)(=O)c1cc(O)ccc1OCCCl [E]
[1]
  I50 (inhibitor concentration that reduces the ELISA signal by 50% in comparison to the control): > 1000 ng/mL
  Cross-reactivity: < 0.7%
[2]
  I50 (inhibitor concentration that reduces the ELISA signal by 50% in comparison to the control): > 1000 ng/mL
  Cross-reactivity: < 0.01%
[3]
  I50 (inhibitor concentration that reduces the ELISA signal by 50% in comparison to the control): > 1000 ng/mL
  Cross-reactivity: < 0.01%

## COc1nc(C)nc(NC(=O)NS(=O)(=O)c2cc(O)ccc2OCCCl)n1 [A]
[1]
  I50 (inhibitor concentration that reduces the ELISA signal by 50% in comparison to the control): 550 ng/mL
  Cross-reactivity: 1.3%
[2]
  I50 (inhibitor concentration that reduces the ELISA signal by 50% in comparison to the control): 21.4 ng/mL
  Cross-reactivity: 0.4%
[3]
  I50 (inhibitor concentration that reduces the ELISA signal by 50% in comparison to the control): 0.16 ng/mL
  Cross-reactivity: 31.3%

## COC(=O)c1ccccc1CS(=O)(=O)NC(=O)Nc1nc(OC)cc(OC)n1 [N, bensulfurone-methyl]
[1]
  I50 (inhibitor concentration that reduces the ELISA signal by 50% in comparison to the control): > 1000 ng/mL
  Cross-reactivity: < 0.7%
[2]
  I50 (inhibitor concentration that reduces the ELISA signal by 50% in comparison to the control): > 1000 ng/mL
  Cross-reactivity: < 0.01%
[3]
  I50 (inhibitor concentration that reduces the ELISA signal by 50% in comparison to the control): > 1000 ng/mL
  Cross-reactivity: < 0.01%

## NC(=O)NS(=O)(=O)c1ccccc1OCCCl [S]
[1]
  I50 (inhibitor concentration that reduces the ELISA signal by 50% in comparison to the control): 6.0 ng/mL
  Cross-reactivity: 120.0%
[2]
  I50 (inhibitor concentration that reduces the ELISA signal by 50% in comparison to the control): 2.6 ng/mL
  Cross-reactivity: 3.5%
[3]
  I50 (inhibitor concentration that reduces the ELISA signal by 50% in comparison to the control): 0.02 ng/mL
  Cross-reactivity: 250.00%

## COc1cc(OC)nc(NC(=O)NS(=O)(=O)c2ncccc2C(=O)N(C)C)n1 [P, nicosulfurone-methyl]
[1]
  I50 (inhibitor concentration that reduces the ELISA signal by 50% in comparison to the control): > 1000 ng/mL
  Cross-reactivity: < 0.7%
[2]
  I50 (inhibitor concentration that reduces the ELISA signal by 50% in comparison to the control): > 1000 ng/mL
  Cross-reactivity: < 0.01%
[3]
  I50 (inhibitor concentration that reduces the ELISA signal by 50% in comparison to the control): > 1000 ng/mL
  Cross-reactivity: < 0.01%

## NS(=O)(=O)c1ccccc1OCCCl [C]
[1]
  I50 (inhibitor concentration that reduces the ELISA signal by 50% in comparison to the control): > 1000 ng/mL
  Cross-reactivity: < 0.7%
[2]
  I50 (inhibitor concentration that reduces the ELISA signal by 50% in comparison to the control): > 1000 ng/mL
  Cross-reactivity: < 0.01%
[3]
  I50 (inhibitor concentration that reduces the ELISA signal by 50% in comparison to the control): 1000 ng/mL
  Cross-reactivity: < 0.01%

## COc1nc(C)nc(NC(N)=O)n1 [F]
[1]
  I50 (inhibitor concentration that reduces the ELISA signal by 50% in comparison to the control): > 1000 ng/mL
  Cross-reactivity: < 0.7%
[2]
  I50 (inhibitor concentration that reduces the ELISA signal by 50% in comparison to the control): > 1000 ng/mL
  Cross-reactivity: < 0.01%
[3]
  I50 (inhibitor concentration that reduces the ELISA signal by 50% in comparison to the control): > 1000 ng/mL
  Cross-reactivity: < 0.01%

## COC(=O)c1ccccc1S(=O)(=O)NC(=O)Nc1nc(OC(F)F)cc(OC(F)F)n1 [I, primisulfurone]
[1]
  I50 (inhibitor concentration that reduces the ELISA signal by 50% in comparison to the control): > 1000 ng/mL
  Cross-reactivity: < 0.7%
[2]
  I50 (inhibitor concentration that reduces the ELISA signal by 50% in comparison to the control): > 1000 ng/mL
  Cross-reactivity: < 0.01%
[3]
  I50 (inhibitor concentration that reduces the ELISA signal by 50% in comparison to the control): > 1000 ng/mL
  Cross-reactivity: < 0.01%

## COC(=O)c1ccccc1S(=O)(=O)NC(=O)Nc1nc(C)cc(C)n1 [J, sulfometurone-methyl]
[1]
  I50 (inhibitor concentration that reduces the ELISA signal by 50% in comparison to the control): > 1000 ng/mL
  Cross-reactivity: < 0.7%
[2]
  I50 (inhibitor concentration that reduces the ELISA signal by 50% in comparison to the control): > 1000 ng/mL
  Cross-reactivity: < 0.01%
[3]
  I50 (inhibitor concentration that reduces the ELISA signal by 50% in comparison to the control): > 1000 ng/mL
  Cross-reactivity: < 0.01%

## NS(=O)(=O)c1ccccc1OCCO [D]
[1]
  I50 (inhibitor concentration that reduces the ELISA signal by 50% in comparison to the control): > 1000 ng/mL
  Cross-reactivity: < 0.7%
[2]
  I50 (inhibitor concentration that reduces the ELISA signal by 50% in comparison to the control): > 1000 ng/mL
  Cross-reactivity: < 0.01%
[3]
  I50 (inhibitor concentration that reduces the ELISA signal by 50% in comparison to the control): > 1000 ng/mL
  Cross-reactivity: < 0.01%

## COc1nc(C)nc(NC(=O)NS(=O)(=O)c2ccc(O)cc2OCCCl)n1 [B]
[1]
  I50 (inhibitor concentration that reduces the ELISA signal by 50% in comparison to the control): > 1000 ng/mL
  Cross-reactivity: < 0.7%
[2]
  I50 (inhibitor concentration that reduces the ELISA signal by 50% in comparison to the control): 85 ng/mL
  Cross-reactivity: 0.1%
[3]
  I50 (inhibitor concentration that reduces the ELISA signal by 50% in comparison to the control): 0.04 ng/mL
  Cross-reactivity: 125.0%
